{
  "source": "patent US5753221A",
  "about": "“Transformed erythrocytes, process for preparing the same, and their use in pharmaceutical compositions” (priority 1991, dated 1998)",
  "key": {"ddCTP dephosphorylation": {"tested_on": "ddCTP dephosphorylation", "experiment": "ATP inhibition of ddCTP dephosphorylation in erythrocyte lysate", "type": "biochemical, human", "details": "2 mM ATP, 100 μM ddCTP, 37° C", "experimental": "Human erythrocytes lysates were prepared by adding 2 volumes of 3 mM sodium potassium phosphate buffer, pH 7.4, containing 3 mM mercaptoethanol, 0.5 mM EDTA to each volume of washed and packed erythrocytes. After 30 min at 4° C., the lysates were centrifuged for 1 h at 12,000×g to remove the cell membranes. The supernatants were then dialyzed overnight against 160 volumes of 0.9% (w/v) NaCl containing 10 mM Tris-HCl, pH 7.5, 10 mM MgCl2 and 0.02 mM EDTA. The dialyzed lysates were then used for the studies of ddCTP stability. Briefly, 900 μl of lysate containing ddCTP 50 μM, 100 μM, 300 μM, 1.2 mM or 1.5 mM in a final volume of 1.2 ml were incubated at 37° C. At time intervals of 0, 15, 30 and 60 min, 250 μl of the incubation mixtures were removed and extracted with 125 μl of 10% (v/v) HClO4. The perchloric acid extract was then neutralized with 23 μl of a 3M solution of K2 CO3, diluted with 60 μl of 0.1M sodium potassium phosphate buffer pH 6.5, centrifuged 10 min at 10,000 rpm in an Eppendorf microcentrifuge and 100 μl of extract analyzed by HPLC as described below. […] Integration of peak areas was obtained by means of an HP 3390A electronic integrator (Hewlett-Packard, Avondale, Pa., U.S.A.). […]"}, "[1]": {"details": "cited from earlier work"}, "[2]": {"experiment": "In vivo half life of loaded erythrocytes in mice (125I-ubiquitin radioactivity)", "experimental": "Similar experiments were also performed on mice erythrocytes to do in vivo studies. The results are similar to those reported above. The in vivo half life of these erythrocytes was evaluated by following the radioactivity of ^125 I-ubiquitin-loaded erythrocytes coencapsulated with ddCTP in erythrocytes treated or not with ZnCl2 and BS^3.\nIn this case, the radioactivity associated with the erythrocytes was determined on blood collected from the tail vein of animals receiving the erythrocytes described above."}, "[3]": {"tested_on": "human erythrocytes lysates", "experiment": "ddCTP stability in human erythrocytes lysates (HPLC)", "type": "in vitro ADME", "details": "for time stable in erythrocyte lysate: in the presence or absence of ATP", "experimental": "Human erythrocytes lysates were prepared by adding 2 volumes of 3 mM sodium potassium phosphate buffer, pH 7.4, containing 3 mM mercaptoethanol, 0.5 mM EDTA to each volume of washed and packed erythrocytes. After 30 min at 4° C., the lysates were centrifuged for 1 h at 12,000×g to remove the cell membranes. The supernatants were then dialyzed overnight against 160 volumes of 0.9% (w/v) NaCl containing 10 mM Tris-HCl, pH 7.5, 10 mM MgCl2 and 0.02 mM EDTA. The dialyzed lysates were then used for the studies of ddCTP stability. Briefly, 900 μl of lysate containing ddCTP 50 μM, 100 μM, 300 μM, 1.2 mM or 1.5 mM in a final volume of 1.2 ml were incubated at 37° C. At time intervals of 0, 15, 30 and 60 min, 250 μl of the incubation mixtures were removed and extracted with 125 μl of 10% (v/v) HClO4. The perchloric acid extract was then neutralized with 23 μl of a 3M solution of K2 CO3, diluted with 60 μl of 0.1M sodium potassium phosphate buffer pH 6.5, centrifuged 10 min at 10,000 rpm in an Eppendorf microcentrifuge and 100 μl of extract analyzed by HPLC as described below. […] Integration of peak areas was obtained by means of an HP 3390A electronic integrator (Hewlett-Packard, Avondale, Pa., U.S.A.). A 5 μm Supelcosil LC-18 column (250 mm×4.6 mm I.D., Supelco, Bellefonte, Pa., U.S.A.) protected by a guard column (Pelliguard LC-18, 20 mm×4.6 mm I.D., pellicular packing material, 40 μm particles) was used throughout these studies. […] All buffer solutions, as well as standards and sample solutions, were filtered through a 0.22 μm membrane filter (Millipore).\nThe elution conditions used to obtain the chromatograms were: 2 min 100% buffer A, 4 min up to 10% buffer B, 4 min up to 40% buffer B, 3 min up to 100% buffer B and the same conditions are maintained for 7 min. The gradient was then returned to 100% buffer A in 2 min and the initial conditions restored in 8 min. The flow-rate was 1.3 ml/min and the detection wavelength was 272 nm. The analyses were performed at room temperature. Quantitative measurements were carried out by injection of standard solutions of known concentration."}, "human erythrocytes [4]": {"tested_on": "human erythrocytes", "details": "cited from earlier work"}, "human erythrocytes [5]": {"tested_on": "human erythrocytes", "experiment": "Stability of ddCTP in intact ddCTP-loaded erythrocytes", "type": "in vitro ADME", "experimental": "(§1) In this case the stability of ddCTP (1 mM) in loaded erythrocytes was evaluated at 37° C. by incubation of ddCTP-loaded erythrocytes at 6% hematocrit in 0.9% (w/v) NaCl containing 10 mM glucose, 5 mM sodium, potassium phosphate buffer, pH 7.4. At different time intervals (0 to 5 h) aliquots (200 μl) of the incubation suspensions were extracted with 100 μl 10% (w/v) HClO4, centrifuged, neutralized and submitted to HPLC analyses as above. In some experiments ^3 H-ddCTP (4 Ci/mmol, Moravek Biochemicals, Inc. Brea Ca) was used.\n(§2) In this case fractions of 0.3 ml were collected at the exit of the wavelength detector of the HPLC system by using an LKB fraction collector and counted in a Packard liquid scintillation Counter. Both methods (HPLC detection and liquid scintillation counting) provided similar results (i.e. ddCTP was stable in erythrocytes until ATP was maintained at physiological concentrations of 1.2 mM, while ddCTP dephosphorylation starts when ATP fall down to values lower than 1 mM."}, "[6]": {"experiment": "Stability of ddCTP in intact ddCTP-loaded erythrocytes", "type": "in vitro ADME, human", "details": "human, erythrocytes; incubation time over 3 h, 37° C; read-out: decay of ddCTP", "experimental": "as §1, §2"}, "[7]": {"tested_on": "human monocytes/macrophages", "experiment": "Delivery of 3H-ddCTP to monocytes/macrophages by phagocytosis", "type": "cell-based", "details": "3H-ddCTP-loaded erythrocytes", "experimental": "Human monocytes/macrophages were prepared from heparinized blood by Lymphoprep (Nyegaard & Co Oslo, Norway) centrifugation. Mononuclear cells collected at the interface between the Lymphoprep and plasma were washed in 5 mM sodium potassium phosphate buffer, pH 7.4, containing 0.9% (w/v) NaCl, 5 mM glucose and finally resuspended in RPMI 1640 medium containing 10% (v/v) fetal bovine serum (FCS). 8.10^6 cells were placed into 100 mm Corning dish and incubated overnight at 37° C. and 5% CO2. Adherent monocytes/macrophages cells were separated from the lymphocytes by three washing steps in RPMI/FCS medium, counted by Tripan blue exclusion dye and incubated with ddCTP-loaded erythrocytes treated or not with ZnCl2 plus BS^3 or with unloaded erythrocytes overnight at 37° C. at a ratio of 100 erythrocytes per monocytes/macrophages. During the loading procedure ^125 I-ubiquitin (2.1 mCi/mg) was also encapsulated as an internal marker to follow phagocytosis both into ddCTP-loaded on ddCTP-unloaded erythrocytes. (Ubiquitin is a polypeptide of 8 KDa that can be easily encapsulated and is retained by the erythrocytes).\nAfter monocytes/macrophages-erythrocytes incubation the dishes were extensively washed with RPMI 1640 medium to remove all erythrocytes not phagocytosed, followed by a 0.9% ammonium chloride washing step to remove adherent erythrocytes that were not yet phagocytosed. […]"}, "cytidine deaminase": {"molecular_target": "cytidine deaminase (Homo sapiens, UniProt P32320)", "sequence (P32320 whole entry)": "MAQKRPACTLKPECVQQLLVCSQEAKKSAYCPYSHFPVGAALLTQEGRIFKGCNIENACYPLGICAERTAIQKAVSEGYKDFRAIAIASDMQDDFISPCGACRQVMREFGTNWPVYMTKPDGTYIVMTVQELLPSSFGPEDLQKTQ", "details": "cited from earlier work"}, "HIV": {"tested_on": "HIV", "details": "cited from earlier work"}},
  "note": "Read-outs that look alike come from different tables or passages of the source.",
  "data": [
    {"smiles": "Nc1ncnc2c1ncn2[C@@H]1O[C@H](COP(=O)(O)OP(=O)(O)OP(=O)(O)O)[C@@H](O)[C@H]1O", "note": "[ATP]", "values": [
      {"measurement": "effect on ddCTP dephosphorylation", "setting": "ddCTP dephosphorylation", "result": "completely abolishes"}
    ]},
    {"smiles": "Cc1cn([C@H]2C[C@H](N=[N+]=[N-])[C@@H](CO)O2)c(=O)[nH]c1=O", "note": "[AZT, 3'-azido-3'-deoxythymidine]", "values": [
      {"measurement": "short plasma half-life (approximate)", "setting": "[1]; human, in vivo", "result": "approximately 1 h"}
    ]},
    {"smiles": "[Cl-].[Cl-].[Zn+2]", "note": "[ZnCl2]", "values": [
      {"measurement": "lowest ZnCl2 concentration able to modify red cell survival", "setting": "[2]", "result": 0.1, "unit": "mM"}
    ]},
    {"smiles": "Nc1ncnc2c1ncn2[C@H]1CC[C@@H](COP(=O)(O)OP(=O)(O)OP(=O)(O)O)O1", "note": "[ddATP, 2',3'-dideoxyadenosine-5'-triphosphate]", "values": [
      {"measurement": "time stable in erythrocyte lysate", "setting": "[3]; 37° C", "result": "at least 2 h"}
    ]},
    {"smiles": "Nc1ccn([C@H]2CC[C@@H](COP(=O)(O)O)O2)c(=O)n1", "note": "[ddCMP, 2',3'-dideoxycytidine-5'-phosphate]", "values": [
      {"measurement": "fate of ddCMP encapsulated in human erythrocytes", "setting": "human erythrocytes [4]", "result": "dephosphorylated by endogenous pyrimidine nucleotidases and subsequently released by the cells as ddCyd"}
    ]},
    {"smiles": "Nc1ccn([C@H]2CC[C@@H](COP(=O)(O)OP(=O)(O)OP(=O)(O)O)O2)c(=O)n1", "note": "[ddCTP, 2',3'-dideoxycytidine-5'-triphosphate]", "values": [
      {"measurement": "ATP concentration below which ddCTP dephosphorylation starts", "setting": "human erythrocytes [5]", "result": "lower than 1 mM"},
      {"measurement": "stability of ddCTP in intact cells", "setting": "human erythrocytes [5]; 37° C, 1 mM ddCTP, 6% hematocrit", "result": "stable even at 37 °C"},
      {"measurement": "metabolised at 3 h, 1000 µM", "setting": "[6]", "result": 20, "unit": "%"},
      {"measurement": "concentration of ddCTP in monocytes/macrophages after phagocytosis", "setting": "[7]", "result": 2.88, "unit": "µM"},
      {"measurement": "pH of maximum dephosphorylation rate", "setting": "[3]", "result": 8.4},
      {"measurement": "Vmax of dephosphorylation of ddCTP to ddCDP", "setting": "[3]; 37° C", "result": "3±0.5", "unit": "nmol/min/g HB"},
      {"measurement": "Km", "setting": "[3]; 37° C, read-out: Km of dephosphorylation of ddCTP to ddCDP", "result": 140, "unit": "µM"},
      {"measurement": "dephosphorylation rate relative to maximum rate", "setting": "[3]; pH 7.2 (physiological value)", "result": 50, "unit": "%"}
    ]},
    {"smiles": "Nc1ccn([C@H]2CC[C@@H](CO)O2)c(=O)n1", "note": "[ddCyd, 2',3'-Dideoxycytidine]", "values": [
      {"measurement": "resistance to cytidine deaminase", "setting": "cytidine deaminase", "result": "resistant to cytidine deaminase"},
      {"measurement": "concentration", "setting": "[1]; 0.09 mg/Kg, intravenous, 4 h, read-out: plasma level at four hours after intravenous administration", "result": "< 100", "unit": "nM"},
      {"measurement": "bioavailability", "setting": "[1]; human, in vivo", "result": "good bioavailability"},
      {"measurement": "short plasma half-life (approximate)", "setting": "[1]; human, in vivo", "result": "approximately 1 h"},
      {"measurement": "concentration", "setting": "[1]; patients receiving 0.09 mg/Kg, read-out: plasma level during the infusion", "result": "> 500", "unit": "nM"},
      {"measurement": "concentration that completely protects target helper/inducer T cells against HIV infections", "setting": "HIV; in vitro", "result": "≥ 0.5", "unit": "µM"},
      {"measurement": "concentration that can suppress the virus", "setting": "HIV; low multiplicity of infection", "result": "≥ 10", "unit": "nM"}
    ]},
    {"smiles": "Nc1nc2c(ncn2[C@H]2CC[C@@H](COP(=O)(O)OP(=O)(O)OP(=O)(O)O)O2)c(=O)[nH]1", "note": "[ddGTP, 2',3'-dideoxyguanosine-5'-triphosphate]", "values": [
      {"measurement": "time stable in erythrocyte lysate", "setting": "[3]; 37° C", "result": "at least 2 h"}
    ]},
    {"smiles": "O=c1[nH]cnc2c1ncn2[C@H]1CC[C@@H](COP(=O)(O)OP(=O)(O)OP(=O)(O)O)O1", "note": "[ddITP, 2',3'-dideoxyinosine-5'-triphosphate]", "values": [
      {"measurement": "time stable in erythrocyte lysate", "setting": "[3]; 37° C", "result": "at least 2 h"}
    ]}
  ]
}
